{"source": "patent US11026906B2", "about": "(priority 2016, dated 2021)", "key": {"[1]": {"test_system": "men and women having low bone mass", "conditions": "cited from earlier work"}, "[2]": {"conditions": "for Area under the curve (AUC0-∞), Mean / Half-life (T1/2), Mean / Oral Bioavailability, Mean / Rate of elimination (K), Mean / Maximum serum concentration (Cmax), Mean: 10 subjects; for Maximum serum concentration (Cmax), Mean: fasted", "from_the_text": "The study was approved by an Institutional Review Board. […] Each provided informed consent to participate in the study.\n(§1) On the day of dose administration, the subjects arrived at the clinic fasted. Their qualifications for enrollment were reviewed to ensure compliance. Immediately prior to administration of the test article, an indwelling venous catheter was placed and a blood sample was withdrawn into a trace metal-free tube (the t=0 sample). […] After drinking the test article solution, fasting continued for 2 hours. During the day, however, subjects were provided usual and customary meals. Potential adverse events were monitored.\nEach blood sample was stored appropriately until all samples had been collected for the day. Then the blood samples were centrifuged to separate the serum, and each serum sample was transferred into two trace metal-free vials. The vials were shipped to an independent analytical laboratory for serum strontium analyses.\nas §1, with “One week later, on the day” for “On the day”, “administration, the same subjects arrived” for “administration, the subjects arrived”"}, "[3]": {"test_system": "subject with osteonecrosis of the jaw and osteoarthritis", "experiment": "Efficacy study in one subject: daily oral strontium L-lactate", "format": "in vivo, human", "method": "Likewise, today there are no effective treatments for osteonecrosis of the jaw caused by lengthy use of bone resorption inhibitors (anti-resorptives). […] The test subject experienced deterioration of the jawbone sufficient to loosen their teeth and cause pain when chewing. They received a 200 mg dose of strontium as the L-lactate each day, taken separately from food. […] Over a 3-month period, the subject receiving this treatment experienced a restoration of the jawbone sufficient to set the teeth more firmly and reduce the pain associated with chewing. […] The benefits were so remarkable that the subject continued treatment for at least 8 months, with continuing resolution of the bone and cartilage defects.\nA subject suffered from latent osteonecrosis of the jaw as a result of several years of alendronate treatment for osteoporosis. In addition to loose teeth and jaw pain during chewing due to the osteonecrosis, they suffered from osteoarthritis. Their dentist advised them that the necrosis was so serious they would lose several teeth and might have to change from a normal diet to a soft-food diet. Their arthritis was so severe that they had to give up crocheting and knitting, hobbies they had enjoyed for many years. […] They requested access to strontium L-lactate of the present invention. […] Their treatment continued for 8 months with similar improvements."}, "[4]": {"test_system": "subjects with femoral neck BMD less than 0.600 g/cm^2", "experiment": "Double-blind clinical study, non-vertebral fractures over 3 year follow-up (expected results)", "conditions": "200 mg strontium daily vs placebo", "quoted_text": "In a double-blind clinical study, 80 subjects are divided into two groups (n=40). The control group receives a daily supplement containing 1.8 g of sodium L-lactate (placebo). […] All non-vertebral fractures will be recorded with the exception of the coccyx, skull, jaw, face, phalanx (fingers and toes) and ankle, since these latter are not regarded as being related to osteoporosis."}, "[5]": {"experiment": "Stability of the compositions (storage, light, heating under vacuum)"}, "[6]": {"conditions": "in vivo; cited from earlier work"}, "[7]": {"conditions": "daily doses of 0.3-0.6 grams; cited from earlier work"}, "[8]": {"conditions": "about 200 mg strontium per day orally, after 3 months"}}, "note": "“Also recorded” adds a separate entry of the source. Read-outs that look alike come from different tables or passages of the source.", "data": [{"smiles": "O=C([O-])CCC(=O)[O-].[Sr+2]", "note": "[strontium succinate]", "values": [{"measurement": "benefit in treating osteoporosis", "setting": "[1]; daily dose of 1.7 grams (680 mg strontium)", "value": "highly beneficial in treating osteoporosis"}]}, {"smiles": "N#Cc1c(N(CC(=O)[O-])CC(=O)[O-])sc(C(=O)[O-])c1CC(=O)[O-].[Sr+2].[Sr+2]", "note": "[strontium ranelate]", "values": [{"measurement": "incidence of fractures", "setting": "[1]; daily dose of 2 grams (680 mg strontium), almost a decade of clinical use", "value": "significantly reduced incidence of fractures"}, {"measurement": "side effects of therapeutic doses of the strontium ion", "setting": "[1]; human exposure", "value": "does not cause gastric irritation, esophageal cancer, colon cancer, or osteonecrosis of the jaw"}]}, {"smiles": "C[C@H](O)C(=O)[O-].C[C@H](O)C(=O)[O-].[Sr+2]", "note": "[strontium L-lactate]", "values": [{"measurement": "average serum concentration of strontium compared with strontium ranelate", "setting": "[2]; 170 mg dose of strontium as L-lactate vs 680 mg dose of strontium as ranelate (U.S. Pat. No. 7,595,342)", "value": "approximately equaled the serum concentration of strontium achieved by ingesting a 680 mg dose of strontium as the ranelate; also recorded: approximately equal to the serum concentrations of strontium provided by 680 mg of water-insoluble strontium ranelate"}, {"measurement": "time at which average serum strontium concentration reached a maximum", "setting": "[2]; after ingesting a solution of strontium L-lactate in water", "value": "about 3 hr"}, {"measurement": "adverse effects", "setting": "[2]; after ingesting any of three escalating doses (170, 340, 680 mg strontium)", "value": "no adverse effects"}, {"measurement": "Area under the curve (AUC0-∞), Mean", "setting": "[2]; oral dose 170 mg strontium", "value": 47.8, "unit": "mg Sr/L · h"}, {"measurement": "Half-life (T1/2), Mean", "setting": "[2]; oral dose 170 mg strontium", "value": 12.3}, {"measurement": "Oral Bioavailability, Mean", "setting": "[2]; oral dose 170 mg strontium", "value": 0.94}, {"measurement": "Rate of elimination (K), Mean", "setting": "[2]; oral dose 170 mg strontium", "value": 0.06, "unit": "h⁻¹"}, {"measurement": "Area under the curve (AUC0-∞), Mean", "setting": "[2]; oral dose 340 mg strontium", "value": 115.6, "unit": "mg Sr/L · h"}, {"measurement": "Half-life (T1/2), Mean", "setting": "[2]; oral dose 340 mg strontium", "value": 12.1}, {"measurement": "Oral Bioavailability, Mean", "setting": "[2]; oral dose 340 mg strontium", "value": 0.93}, {"measurement": "Rate of elimination (K), Mean", "setting": "[2]; oral dose 340 mg strontium", "value": 0.06, "unit": "h⁻¹"}, {"measurement": "Area under the curve (AUC0-∞), Mean", "setting": "[2]; oral dose 680 mg strontium", "value": 185.0, "unit": "mg Sr/L · h"}, {"measurement": "Half-life (T1/2), Mean", "setting": "[2]; oral dose 680 mg strontium", "value": 14.0}, {"measurement": "Oral Bioavailability, Mean", "setting": "[2]; oral dose 680 mg strontium", "value": 0.94}, {"measurement": "Rate of elimination (K), Mean", "setting": "[2]; oral dose 680 mg strontium", "value": 0.05, "unit": "h⁻¹"}, {"measurement": "Maximum serum concentration (Cmax), Mean", "setting": "[2]; single oral dose 340 mg strontium as strontium L-lactate in 100 mL water", "value": 6.3, "unit": "mg Sr/L"}, {"measurement": "Maximum serum concentration (Cmax), Mean", "setting": "[2]; single oral dose 680 mg strontium as strontium L-lactate in 100 mL water", "value": 9.3, "unit": "mg Sr/L"}, {"measurement": "side effects", "setting": "[3]; 200 mg strontium per day, at least 8 months", "value": "no side effects"}, {"measurement": "osteoarthritis: stiffness, pain, flexibility of hands", "setting": "[3]; [8]", "value": "increased flexibility of osteoarthritic hands and fingers; also recorded: the stiffness and pain of their osteoarthritis had significantly abated"}, {"measurement": "osteonecrosis of the jaw: teeth setting and pain when chewing", "setting": "[3]; [8]", "value": "reduced the injury and pain associated with osteonecrosis of the jaw; also recorded: their teeth were more set in their jawbone and that they experienced less pain when chewing"}, {"measurement": "non-vertebral fractures", "setting": "[4]", "value": "significant reduction in all non-vertebral fractures"}]}, {"smiles": "C[C@H](O)C(=O)[O-].C[C@H](O)C(=O)[O-].O.O.O.[Sr+2]", "note": "[strontium L-lactate trihydrate]", "values": [{"measurement": "stability on exposure to light", "setting": "[5]", "value": "stable"}, {"measurement": "stability during storage", "setting": "[5]; 25° C./60% relative humidity", "value": "stable"}, {"measurement": "racemization on heating", "setting": "[5]; solid heated under vacuum, about 100° C. to about 130° C.", "value": "No racemization"}]}, {"smiles": "C[C@@H](O)C(=O)O", "note": "[D-lactate]", "values": [{"measurement": "blood concentration causing acidosis and encephalopathies", "setting": "[6]", "value": "≥ 3000", "unit": "µM"}]}, {"smiles": "CC(O)C(=O)[O-].CC(O)C(=O)[O-].[Sr+2]", "note": "(centres unmarked) [strontium lactate]", "values": [{"measurement": "albumin in the urine", "setting": "[7]", "value": "decrease albumin in the urine"}]}]}
